Test results reported in patent US9776992B2, “1-oxo-1,2-dihydroisoquinolin-7-yl-(5-substituted-thiophen-2-yl)-sulfonamide compounds, formulations containing those compounds, and their use as AICARFT inhibitors in the treatment of cancers” (Eli Lilly and Company, priority 2014, dated 2017).

Molecular target: AICARFT (Homo sapiens, UniProt P31939)
Assay: AICARFT enzyme assay (LC-MS of IMP and ZMP)
Assay type: biochemical
Design: made in house; host or cells: E. coli BL21(DE3)
Details: for IC50: Mean ± SEM, 25 μM ZMP, 100 μM 10-F-THFA, 3 nM ATIC enzyme, 1 hour at room temperature; for AICARFT inhibition in enzyme assay (in words): summary of Table 15
Procedure: Human AICARFT (NCBI accession number: NM_004044.6) cDNA is purchased from Openbiosystem Co. (Cat# MHS1011-62310, Clone ID: 4300570, accession: BC008879). The nucleotide sequence encoding full-length human AICARFT is inserted into pET21d (Novagen) vector with an N-terminal HIS tag. Bacterial BL21(DE3) (Novagen) is used as an expression host, and the induction of protein expression is carried out in 2×TY media with 1 mM IPTG at 18° C. overnight. Cell pellets are stored at −80° C. for subsequent protein purification. Protein purification is conducted at 4° C. Frozen cell pellets are lysed by incubation with stirring in 50 mL cold lysis buffer (50 mM Tris-HCl, pH 7.5, 300 mM NaCl, 10% glycerol, 0.1% Triton X-100, 0.5 mg/mL lysozyme, 5 U/mL benzonase, 1 mM DTT, 10 mM imidazole, and Roche complete EDTA-free protease inhibitor) per liter cell pellet and sonication. Cell lysates are clarified by centrifugation in a Bechman JA-18 rotor for 45 min at 16,500 rpm. The supernatant is incubated with Ni-NTA agarose resin (Qiagen) for 3 hours, followed by an initial batch wash with 10 resin volume of buffer A (50 mM Tris-HCl, pH 7.5, 300 mM NaCl, 10% glycerol, 1 mM DTT, 10 mM imidazole) containing 0.1% Triton X-100. The resin is then packed onto a column and washed with buffer A. The HIS-tagged AICARFT protein is eluted with 10-500 mM imidazole gradient in buffer A. Pooled HIS-AICARFT containing fractions are concentrated, loaded onto a HiLoad 26/600 Superdex 200 column (GE Healthcare Biosciences), and eluted with storage buffer (50 mM Tris-HCl, pH7.5, 150 mM NaCl, 1 mM DTT, 10% Glycerol). Fractions containing HIS-AICARFT are pooled and protein concentration determined by the Bradford assay using BSA as standard. The protein is aliquoted and stored at −80° C.
One of the substrates of the enzyme reaction, 10-formyltetrahydrofolate (10-F-THFA), has limited chemical stability and is therefore synthesized on the same day that the ATIC enzyme assay is performed. The general synthetic route is described in P. Rowe, Methods Enzymol., 18, 733-735, (1971) and J. Rabinowitz, Methods Enzymol., 6, 814-815, (1963). The first step in this synthesis is the conversion of folinic acid (Sigma CAS 1492-18-8) to 5,10-methenyltetrahydrofolic acid (5,10-M-THFA). This conversion typically takes place the day before the enzyme assay is performed, but can be performed up to 1 week earlier and stored at room temperature. To folinic acid (81.6 mg) is added β-mercaptoethanol (2 mL), and 37% concentrated HCl (80 μL), is added. This reaction incubates a minimum of 3 hours at room temperature, with occasional mixing. The color changes from clear to yellow visually, and the complete conversion of folinic acid to 5,10-M-THFA is monitored by spectral analysis using a quartz cuvette. The UV absorption will change from 266 nm to 356 nm during this step. […] On the morning of the assay, the 80 mM 5,10-M-THFA is diluted to 1.6 mM in 40 μM ammonium bicarbonate (made fresh that day). This reaction incubates 3-5 hours at room temperature. The color changes from yellow to clear visually, and the conversion of 5,10-M-THFA to 10-F-THFA is monitored by spectral analysis using a quartz cuvette. The UV absorption will change from 356 nm to 258 nm during this step. […] Test compounds are prepared in DMSO to make a 10 mM stock solution. The stock solution is serially diluted 3-fold in DMSO to obtain a ten-point dilution curve with final compound concentrations ranging from 100 μM to 5 nM. The final DMSO concentration in the assay is 5%.
To each well of a 384-well polypropylene assay plate (NUNC 264573), […] of DMSO (control wells) or compound in DMSO and 9 μL of 55.56 μM ZMP (Sigma-Aldrich CAS 3031-94-5) in water are added. Then, 10 μL of 200 μM 10-F-THFA and 6 nM ATIC enzyme in 40 μM ammonium bicarbonate is added. […] The assay is incubated for 1 hour at room temperature, after which 40 μL of ACN is added to stop the reaction.

Sequence of AICARFT (P31939 whole entry): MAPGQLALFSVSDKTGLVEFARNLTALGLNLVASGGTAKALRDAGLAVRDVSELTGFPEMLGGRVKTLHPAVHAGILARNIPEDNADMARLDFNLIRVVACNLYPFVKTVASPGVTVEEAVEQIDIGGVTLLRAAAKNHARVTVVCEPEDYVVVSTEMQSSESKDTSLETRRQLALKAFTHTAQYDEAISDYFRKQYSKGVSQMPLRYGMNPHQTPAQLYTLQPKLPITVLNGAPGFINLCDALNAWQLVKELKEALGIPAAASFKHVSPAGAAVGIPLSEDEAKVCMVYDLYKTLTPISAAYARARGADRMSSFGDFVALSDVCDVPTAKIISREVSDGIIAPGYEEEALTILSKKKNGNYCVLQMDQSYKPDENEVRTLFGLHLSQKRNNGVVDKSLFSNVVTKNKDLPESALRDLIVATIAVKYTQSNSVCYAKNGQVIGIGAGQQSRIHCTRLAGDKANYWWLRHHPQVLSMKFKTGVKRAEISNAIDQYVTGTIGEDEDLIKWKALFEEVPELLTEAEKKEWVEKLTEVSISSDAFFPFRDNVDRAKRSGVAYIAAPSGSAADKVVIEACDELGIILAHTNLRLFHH

| SMILES | IC50 [nM] | AICARFT inhibition in enzyme assay (in words) |
| --- | --- | --- |
| O=c1[nH]ccc2cc(F)c(NS(=O)(=O)c3ccc(N4C[C@@H](O)[C@@H](F)C4)s3)cc12 (single isomer, unassigned) [Example 33] | 7.75 | inhibit AICARFT |
| O=c1[nH]ccc2cc(F)c(NS(=O)(=O)c3ccc([C@@H]4CC[C@@H](O)C4)s3)cc12 (single isomer, unassigned) [Example 46] | 29.1 | inhibit AICARFT |
| CCC1(C)CC(c2ccc(S(=O)(=O)Nc3cc4c(=O)[nH]ccc4cc3F)s2)=CNC1=O (single isomer, unassigned; isomer 1) [Example 84, 5-(5-Ethyl-5-methyl-6-oxo-1,4,5,6-tetrahydropyridin-3-yl)-N-(6-fluoro-1-oxo-1,2-dihydroisoquinolin-7-yl)thiophe2ne-2-sulfonamide, Isomer 1] | < 5.08 | inhibit AICARFT |
| O=c1[nH]ccc2cc(F)c(NS(=O)(=O)c3ccc(N4CC[C@@H](O)C4)s3)cc12 [Example 1, N-(6-Fluoro-1-oxo-1,2-dihydroisoquinolin-7-yl)-5-[(3R)-3-hydroxypyrrolidin-1-yl]thiophene-2-sulfonamide] |  | inhibit AICARFT |
| O=c1[nH]ccc2cc(F)c(NS(=O)(=O)c3ccc(N4C[C@@H](O)C(F)(F)C4)s3)cc12 [Example 41, 5-[(4R)-3,3-difluoro-4-hydroxypyrrolidin-1-yl]-N-(6-fluoro-1-oxo-1,2-dihydroisoquinolin-7-yl)thiophene-2-sulfonamide] | 10.6 | inhibit AICARFT |
| CC1(C)CC(c2ccc(S(=O)(=O)Nc3cc4c(=O)[nH]ccc4cc3F)s2)=CNC1=O [Example 81, 5-(5,5-Dimethyl-6-oxo-1,4,5,6-tetrahydropyridin-3-yl)-N-(6-fluoro-1-oxo-1,2-dihydroisoquinolin-7-yl)thiophene-2-sulfonamide] | < 5.08 | inhibit AICARFT |
